# Experiments:
# Carbonic anhydrase 9 = Carbonic anhydrase 9 (Homo sapiens, UniProt Q16790); test: Inhibition of recombinant human CA 9 preincubated for 15 mins by phenol red dye based stopped flow CO2 hydration assay
# HL-60(TB) = test: Anticancer activity against human HL-60(TB) cells assessed as cell growth inhibition at 10 uM incubated for 48 hrs by SRB assay relative to control; assay type: functional; conditions: read-out: GI
# MOLT-4 = test: Anticancer activity against human MOLT-4 cells assessed as cell growth inhibition at 10 uM incubated for 48 hrs by SRB assay relative to control; assay type: functional; conditions: read-out: GI
# RPMI-8226 = test: Anticancer activity against human RPMI-8226 cells assessed as cell growth inhibition at 10 uM incubated for 48 hrs by SRB assay relative to control; assay type: functional; conditions: read-out: GI
# SR = test: Anticancer activity against human SR cells assessed as cell growth inhibition at 10 uM incubated for 48 hrs by SRB assay relative to control; assay type: functional; conditions: read-out: GI
# A549 = test: Anticancer activity against human A549 cells assessed as cell growth inhibition at 10 uM incubated for 48 hrs by SRB assay relative to control; assay type: functional; conditions: read-out: GI
# EKVX = test: Anticancer activity against human EKVX cells assessed as cell growth inhibition at 10 uM incubated for 48 hrs by SRB assay relative to control; assay type: functional; conditions: read-out: GI
# HOP-62 = test: Anticancer activity against human HOP-62 cells assessed as cell growth inhibition at 10 uM incubated for 48 hrs by SRB assay relative to control; assay type: functional; conditions: read-out: GI
# NCI-H226 = test: Anticancer activity against human NCI-H226 cells assessed as cell growth inhibition at 10 uM incubated for 48 hrs by SRB assay relative to control; assay type: functional; conditions: read-out: GI
# NCI-H460 = test: Anticancer activity against human NCI-H460 cells assessed as cell growth inhibition at 10 uM incubated for 48 hrs by SRB assay relative to control; assay type: functional; conditions: read-out: GI
# COLO 205 = test: Anticancer activity against human COLO 205 cells assessed as cell growth inhibition at 10 uM incubated for 48 hrs by SRB assay relative to control; assay type: functional; conditions: read-out: GI
# HCC 2998 = test: Anticancer activity against human HCC 2998 cells assessed as cell growth inhibition at 10 uM incubated for 48 hrs by SRB assay relative to control; assay type: functional; conditions: read-out: GI
# HCT-116 = test: Anticancer activity against human HCT-116 cells assessed as cell growth inhibition at 10 uM incubated for 48 hrs by SRB assay relative to control; assay type: functional; conditions: read-out: GI
# KM12 = test: Anticancer activity against human KM12 cells assessed as cell growth inhibition at 10 uM incubated for 48 hrs by SRB assay relative to control; assay type: functional; conditions: read-out: GI
# SF-268 = test: Anticancer activity against human SF-268 cells assessed as cell growth inhibition at 10 uM incubated for 48 hrs by SRB assay relative to control; assay type: functional; conditions: read-out: GI
# SNB-19 = test: Anticancer activity against human SNB-19 cells assessed as cell growth inhibition at 10 uM incubated for 48 hrs by SRB assay relative to control; assay type: functional; conditions: read-out: GI
# U-251 = test: Anticancer activity against human U-251 cells assessed as cell growth inhibition at 10 uM incubated for 48 hrs by SRB assay relative to control; assay type: functional; conditions: read-out: GI
# Malme-3M = test: Anticancer activity against human Malme-3M cells assessed as cell growth inhibition at 10 uM incubated for 48 hrs by SRB assay relative to control; assay type: functional; conditions: read-out: GI
# MDA-MB-435 = test: Anticancer activity against human MDA-MB-435 cells assessed as cell growth inhibition at 10 uM incubated for 48 hrs by SRB assay relative to control; assay type: functional; conditions: read-out: GI
# SK-MEL-2 = test: Anticancer activity against human SK-MEL-2 cells assessed as cell growth inhibition at 10 uM incubated for 48 hrs by SRB assay relative to control; assay type: functional; conditions: read-out: GI
# SK-MEL-5 = test: Anticancer activity against human SK-MEL-5 cells assessed as cell growth inhibition at 10 uM incubated for 48 hrs by SRB assay relative to control; assay type: functional; conditions: read-out: GI
# UACC-257 = test: Anticancer activity against human UACC-257 cells assessed as cell growth inhibition at 10 uM incubated for 48 hrs by SRB assay relative to control; assay type: functional; conditions: read-out: GI
# UACC-62 = test: Anticancer activity against human UACC-62 cells assessed as cell growth inhibition at 10 uM incubated for 48 hrs by SRB assay relative to control; assay type: functional; conditions: read-out: GI
# IGROV-1 = test: Anticancer activity against human IGROV-1 cells assessed as cell growth inhibition at 10 uM incubated for 48 hrs by SRB assay relative to control; assay type: functional; conditions: read-out: GI
# OVCAR-3 = test: Anticancer activity against human OVCAR-3 cells assessed as cell growth inhibition at 10 uM incubated for 48 hrs by SRB assay relative to control; assay type: functional; conditions: read-out: GI
# OVCAR-5 = test: Anticancer activity against human OVCAR-5 cells assessed as cell growth inhibition at 10 uM incubated for 48 hrs by SRB assay relative to control; assay type: functional; conditions: read-out: GI
# OVCAR-8 = test: Anticancer activity against human OVCAR-8 cells assessed as cell growth inhibition at 10 uM incubated for 48 hrs by SRB assay relative to control; assay type: functional; conditions: read-out: GI
# NCI/ADR-RES = test: Anticancer activity against human NCI/ADR-RES cells assessed as cell growth inhibition at 10 uM incubated for 48 hrs by SRB assay relative to control; assay type: functional; conditions: read-out: GI
# 786-0 = test: Anticancer activity against human 786-0 cells assessed as cell growth inhibition at 10 uM incubated for 48 hrs by SRB assay relative to control; assay type: functional; conditions: read-out: GI
# ACHN = test: Anticancer activity against human ACHN cells assessed as cell growth inhibition at 10 uM incubated for 48 hrs by SRB assay relative to control; assay type: functional; conditions: read-out: GI
# SN12C = test: Anticancer activity against human SN12C cells assessed as cell growth inhibition at 10 uM incubated for 48 hrs by SRB assay relative to control; assay type: functional; conditions: read-out: GI
# TK-10 = test: Anticancer activity against human TK-10 cells assessed as cell growth inhibition at 10 uM incubated for 48 hrs by SRB assay relative to control; assay type: functional; conditions: read-out: GI
# UO-31 = test: Anticancer activity against human UO-31 cells assessed as cell growth inhibition at 10 uM incubated for 48 hrs by SRB assay relative to control; assay type: functional; conditions: read-out: GI
# PC-3 = test: Anticancer activity against human PC-3 cells assessed as cell growth inhibition at 10 uM incubated for 48 hrs by SRB assay relative to control; assay type: functional; conditions: read-out: GI
# MCF7 = test: Anticancer activity against human MCF7 cells assessed as cell growth inhibition at 10 uM incubated for 48 hrs by SRB assay relative to control; assay type: functional; conditions: read-out: GI
# MDA-MB-231 = test: Anticancer activity against human MDA-MB-231 cells assessed as cell growth inhibition at 10 uM incubated for 48 hrs by SRB assay relative to control; assay type: functional; conditions: read-out: GI
# Hs-578T = test: Anticancer activity against human Hs-578T cells assessed as cell growth inhibition at 10 uM incubated for 48 hrs by SRB assay relative to control; assay type: functional; conditions: read-out: GI
# BT-549 = test: Anticancer activity against human BT-549 cells assessed as cell growth inhibition at 10 uM incubated for 48 hrs by SRB assay relative to control; assay type: functional; conditions: read-out: GI
# T47D = test: Anticancer activity against human T47D cells assessed as cell growth inhibition at 10 uM incubated for 48 hrs by SRB assay relative to control; assay type: functional; conditions: read-out: GI
# MDA-MB-468 = test: Anticancer activity against human MDA-MB-468 cells assessed as cell growth inhibition at 10 uM incubated for 48 hrs by SRB assay relative to control; assay type: functional; conditions: read-out: GI
Compound,Ki (Carbonic anhydrase 9) [nM],inhibition of growth at 10 µM (HL-60(TB)) [%],inhibition of growth at 10 µM (MOLT-4) [%],inhibition of growth at 10 µM (RPMI-8226) [%],inhibition of growth at 10 µM (SR) [%],inhibition of growth at 10 µM (A549) [%],inhibition of growth at 10 µM (EKVX) [%],inhibition of growth at 10 µM (HOP-62) [%],inhibition of growth at 10 µM (NCI-H226) [%],inhibition of growth at 10 µM (NCI-H460) [%],inhibition of growth at 10 µM (COLO 205) [%],inhibition of growth at 10 µM (HCC 2998) [%],inhibition of growth at 10 µM (HCT-116) [%],inhibition of growth at 10 µM (KM12) [%],inhibition of growth at 10 µM (SF-268) [%],inhibition of growth at 10 µM (SNB-19) [%],inhibition of growth at 10 µM (U-251) [%],inhibition of growth at 10 µM (Malme-3M) [%],inhibition of growth at 10 µM (MDA-MB-435) [%],inhibition of growth at 10 µM (SK-MEL-2) [%],other results
NS(=O)(=O)c1ccc(Nc2nc(N/N=C/c3ccccn3)nc(Nc3ccccc3)n2)cc1,27.2,97,96,63,87,64,86,128,149,96,142,174,129,95,122,90,155,168,184,182,inhibition of growth at 10 µM (SK-MEL-5): 184%; inhibition of growth at 10 µM (UACC-257): 118%; inhibition of growth at 10 µM (UACC-62): 149%; inhibition of growth at 10 µM (IGROV-1): 130%; inhibition of growth at 10 µM (OVCAR-3): 115%; inhibition of growth at 10 µM (OVCAR-5): 90%; inhibition of growth at 10 µM (OVCAR-8): 96%; inhibition of growth at 10 µM (NCI/ADR-RES): 51%; inhibition of growth at 10 µM (786-0): 91%; inhibition of growth at 10 µM (ACHN): 82%; inhibition of growth at 10 µM (SN12C): 97%; inhibition of growth at 10 µM (TK-10): 97%; inhibition of growth at 10 µM (UO-31): 82%; inhibition of growth at 10 µM (PC-3): 107%; inhibition of growth at 10 µM (MCF7): 98%; inhibition of growth at 10 µM (MDA-MB-231): 129%; inhibition of growth at 10 µM (Hs-578T): 118%; inhibition of growth at 10 µM (BT-549): 120%; inhibition of growth at 10 µM (T47D): 118%; inhibition of growth at 10 µM (MDA-MB-468): 129%
NS(=O)(=O)c1ccc(Nc2nc(N/N=C/c3ccc(Cl)cc3)nc(Nc3ccccc3)n2)cc1,22.6,27,98,45,81,37,23,16,18,27,26,23,55,36,26,18,45,11,42,18,inhibition of growth at 10 µM (SK-MEL-5): 30%; inhibition of growth at 10 µM (UACC-257): 10%; inhibition of growth at 10 µM (UACC-62): 25%; inhibition of growth at 10 µM (IGROV-1): 33%; inhibition of growth at 10 µM (OVCAR-3): 29%; inhibition of growth at 10 µM (OVCAR-5): 16%; inhibition of growth at 10 µM (OVCAR-8): 32%; inhibition of growth at 10 µM (NCI/ADR-RES): < 10%; inhibition of growth at 10 µM (786-0): 59%; inhibition of growth at 10 µM (ACHN): < 10%; inhibition of growth at 10 µM (SN12C): 18%; inhibition of growth at 10 µM (TK-10): < 10%; inhibition of growth at 10 µM (UO-31): 17%; inhibition of growth at 10 µM (PC-3): 48%; inhibition of growth at 10 µM (MCF7): 61%; inhibition of growth at 10 µM (MDA-MB-231): 13%; inhibition of growth at 10 µM (Hs-578T): 35%; inhibition of growth at 10 µM (BT-549): 25%; inhibition of growth at 10 µM (T47D): 55%; inhibition of growth at 10 µM (MDA-MB-468): 33%
Cc1ccc(/C=N/Nc2nc(Nc3ccccc3)nc(Nc3ccc(S(N)(=O)=O)cc3)n2)cc1,26.9,24,59,56,64,16,21,13,20,45,16,25,48,34,12,22,37,< 10,30,22,inhibition of growth at 10 µM (SK-MEL-5): 23%; inhibition of growth at 10 µM (UACC-257): < 10%; inhibition of growth at 10 µM (UACC-62): < 10%; inhibition of growth at 10 µM (IGROV-1): 46%; inhibition of growth at 10 µM (OVCAR-3): 39%; inhibition of growth at 10 µM (OVCAR-5): 15%; inhibition of growth at 10 µM (OVCAR-8): 30%; inhibition of growth at 10 µM (NCI/ADR-RES): < 10%; inhibition of growth at 10 µM (786-0): 53%; inhibition of growth at 10 µM (ACHN): 38%; inhibition of growth at 10 µM (SN12C): 17%; inhibition of growth at 10 µM (TK-10): < 10%; inhibition of growth at 10 µM (UO-31): 31%; inhibition of growth at 10 µM (PC-3): 33%; inhibition of growth at 10 µM (MCF7): 73%; inhibition of growth at 10 µM (MDA-MB-231): 26%; inhibition of growth at 10 µM (Hs-578T): 37%; inhibition of growth at 10 µM (BT-549): 23%; inhibition of growth at 10 µM (T47D): 45%; inhibition of growth at 10 µM (MDA-MB-468): 35%

# Reference: ChEMBL document CHEMBL5154747, “Discovery of new carbonic anhydrase IX inhibitors as anticancer agents by toning the hydrophobic and hydrophilic rims of the active site to encounter the dual-tail approach” (Eur J Med Chem, 2022)
